Test results published in patent US20100035943A1, “Oxa-and thiadiazoles and their use as metalloproteinase inhibitors” (VERNALIS (OXFORD) LTD, priority 2002, published 2010).

Legend:
[1] = system: CCl4-induced liver fibrosis; test: CCl4-induced liver fibrosis model; type: in vivo, Male Sprague-Dawley rats; details: rat, CCl4 i.p.
From the text: Carbon tetrachloride (CCl4) induces liver fibrosis when administered intraperitoneally (Bulbena O, Culat J, Bravo M L., Inflammation 1997 October; 21(5):475-88). Compounds of the invention can be evaluated for their ability to prevent the CCl4-induced formation of fibrotic tissue. Male Sprague-Dawley rats, 7 weeks old, weight approx. 300 g from Charles River/Iffa-Crédo, St-Germain/l'Arbresle, France. The study involved the following groups of 8 animals each, as indicated below. Group 1: “Sham” animals received CCl4 vehicle (i.p.) and once daily, the vehicle of test substance (s.c.) Group 2: Positive control group received CCl4 (i.p.), and once daily, the vehicle of the test substance (s.c.) Group 3: Experimental group received CCl4 (i.p.), and once daily, 2 mg/kg s.c. of the compound of Example 13. Group 4: Experimental group received CCl4 (i.p.), and once daily, 10 mg/kg s.c. of the compound of Example 13. Group 5: Experimental group received CCl4 (i.p.) and once daily, 20 mg/kg s.c. of the compound of Example 13. CCl4 (Prolabo) in olive oil was administered every 3 days for three weeks by intraperitoneal injection (0,25 ml CCl4/kg body weight, diluted in oil 1:1 vol:vol for a total volume of 0.5 ml/kg). Animals were weighed daily. If body weight decreased by more than 10% of the initial weight, the animal was excluded from the study. Vehicles and compound were used as follows: • CCl4 was administered in olive oil (prolabo) at a 1:1 dilution; • The compound of Example 13 was suspended in 0.25% Tween-80 and 0.25% carboxymethylcellulose in sterile 0.9% NaCl. The solution was kept at 4° C. throughout the experiment and used each day to prepare the suspensions. The compound of Example 13 was administered daily by subcutaneous (s.c.) injection at a volume of administration of 5 ml/kg. Groups 1 and 2 were dosed s.c. with 5 ml/kg of vehicle. Freshly prepared solutions were used on each day of the experiment. […] Plasma aspartate amino transferase (ASAT) and alanine amino transferase (ALAT) levels were measured in order to assess liver necrosis. […]

metalloelastase (MMP12) = metalloelastase (MMP12) (Homo sapiens, UniProt P39900); test: MMP12 enzyme inhibition assay (fluorogenic peptide substrate McaPLGLDpaAR); type: biochemical; details: protocol as for MMP9 assay
Chain of metalloelastase (MMP12) (P39900 106-470): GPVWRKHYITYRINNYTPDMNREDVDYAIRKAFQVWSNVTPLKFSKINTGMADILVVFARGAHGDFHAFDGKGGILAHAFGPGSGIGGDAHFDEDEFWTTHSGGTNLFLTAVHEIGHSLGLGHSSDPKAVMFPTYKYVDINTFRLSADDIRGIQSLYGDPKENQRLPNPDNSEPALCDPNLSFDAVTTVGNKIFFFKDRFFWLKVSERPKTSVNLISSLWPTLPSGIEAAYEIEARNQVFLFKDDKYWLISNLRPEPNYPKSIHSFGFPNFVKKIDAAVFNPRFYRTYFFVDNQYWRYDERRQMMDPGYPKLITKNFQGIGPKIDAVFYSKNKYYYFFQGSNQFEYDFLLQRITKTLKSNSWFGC
Protocol: Stock solutions were made up as follows: • Assay Buffer: 100 mM Tris-HCl pH 7.6 containing 100 mM NaCl, 10 mM CaCl2, and 0.05% Brij 35 • Substrate: 0.4 mM McaPLGLDpaAR (from Bachem) (0.437 mg/ml) stock solution in 100% DMSO (stored at −20° C.). Dilute to 8 μM in assay buffer. • Enzyme: Recombinant human 92 kDa gelatinase (MMP-9; APMA (4-aminophenyl • mercuric acetate)—activated if necessary) appropriately diluted in assay buffer.
Test Compounds were prepared initially as 10 mM compound solution in 100% DMSO, diluted to 1 mM in 100% DMSO, then serially diluted 3-fold in 100% DMSO across columns 1-10 of a 96-well microtitre plate Assay concentration range, 100 μM (column 1) to 5.1 nM (column 10)
The assay was performed in a total volume of 100 μl per well in 96-well microtitre plates. Activated enzyme (20 μl) was added to the wells followed by 20 μl of assay buffer. Appropriate concentrations of test compounds dissolved in 10 μl of DMSO were then added followed by 50 μl of McaPLGLDpaAR (8 μM, prepared by dilution of DMSO stock in assay buffer). For each assay ten concentrations of test compound were examined in duplicate. Control wells lack either enzyme or test compound. The reactions were incubated at 37° C. for 2 hours. The fluorescence at 405 nm was measured immediately with an SLT Fluostar fluorometer (SLT Labinstruments GmbH, Grödig, Austria) using 320 nm excitation, without stopping the reaction.
The effect of the test compound was determined from the dose response curve generated by the 10 duplicate concentrations of inhibitor. The IC50 (the concentration of compound required to give a 50% decrease in enzyme activity) was obtained by fitting data to the equation, Y=a+((b−a)/(1+(c/X)^d)). (Y=inhibition achieved for a particular dose; X=the dose in nM; a=minimum y or zero % inhibition; b=maximum y or 100% inhibition; c=is the IC50; d=is the slope). The result was rounded to one significant figure.
Compounds were tested for inhibitory activity against metalloelastase (MMP12) in an assay using a coumarin-labelled peptide substrate, (7-methoxycoumarin-4-yl)acetyl-Pro-Leu-Gly-Leu-(3-[2,4-dinitrophenyl]-L-2,3-diaminopropionyl)-Ala-Arg-NH2 (McaPLGLDpaAR) (Knight et al, FEBS Lett. 1992; 263-266). The protocol for this assay was as described for the MMP9 assay above.

[2] = compound s.c. once daily 2, 10, 20 mg/kg for 21 days, compared to vehicle (FIG. 1)

- IC50 (metalloelastase (MMP12)): < 100 nM
SMILES: CC(C)C[C@@H](C(=O)N[C@H](c1noc(-c2cccs2)n1)C(C)(C)C)[C@H](O)C(=O)NO [Example 13, 2S-Hydroxy-3R-[1S-(5-thiophen-2-yl-[1,2,4]oxadiazol-3-yl)-2,2-dimethyl-propylcarbamoyl]-5-methyl Hexanohydroxamic Acid]
- Plasma alanine amino transferase (ALAT) level [1, 2]: clearly decreases
- Plasma aspartate amino transferase (ASAT) level [1, 2]: clearly decreases
- Effect on the liver ([1]; compound s.c. once daily, conclusion from ASAT and ALAT levels): protective effect on the liver
